Data as given in patent publication US4748240A, “Psychotropic bicyclic imides” (American Home Products Corporation, priority 1987, dated 1988).
Where two headings read alike, the source gives them in different places.

Key:
[1] = tested on: conditioned avoidance responding; assay: Conditioned avoidance, shelf-jump response; type: in vivo, rat (male CD, Charles River); conditions: Rattus norvegicus, ip; single dose 40 mg/kg
Description: (§1) The antipsychotic properties of the compounds of this invention were established by standard pharmacologically accepted procedures involving conditioned avoidance studies in which trained male CD rats (Charles River), 400-450 g. body weight are exposed to a fifteen second warning tone (conditioned stimulus) continued for an additional fifteen seconds accompanied by electric shock. The rat can avoid the electric shock by jumping to an exposed shelf (shelf-jump response). A response during the initial warning tone is considered an avoidance response, while a response during shock delivery is considered as escape response. The shelf-jump response test procedure follows that of Herman et al., Comm. in Psychopharm., 3, pp. 165-171 (1979). The compounds of this invention were tested at a single dose (40 mg./kg. i.p.) in this procedure and were rated relative to their inhibition of conditioned avoidance responding. A similar test procedure (Discrete Trial) in which a lever press was substituted for a shelf-jump was used to establish the oral (p.o.) activity of the test compounds. Orally active compounds were tested over a full dose range and the Avoidance Block activities reported as "AB50 's" (mg./kg.).

[2] = target: T1, 5-HT1A serotonin receptor (Rattus norvegicus, UniProt P19327); assay: Inhibition of [^3 H] 8-OH DPAT binding
T1 construct: from tissue
T1 sequence (P19327 1-422): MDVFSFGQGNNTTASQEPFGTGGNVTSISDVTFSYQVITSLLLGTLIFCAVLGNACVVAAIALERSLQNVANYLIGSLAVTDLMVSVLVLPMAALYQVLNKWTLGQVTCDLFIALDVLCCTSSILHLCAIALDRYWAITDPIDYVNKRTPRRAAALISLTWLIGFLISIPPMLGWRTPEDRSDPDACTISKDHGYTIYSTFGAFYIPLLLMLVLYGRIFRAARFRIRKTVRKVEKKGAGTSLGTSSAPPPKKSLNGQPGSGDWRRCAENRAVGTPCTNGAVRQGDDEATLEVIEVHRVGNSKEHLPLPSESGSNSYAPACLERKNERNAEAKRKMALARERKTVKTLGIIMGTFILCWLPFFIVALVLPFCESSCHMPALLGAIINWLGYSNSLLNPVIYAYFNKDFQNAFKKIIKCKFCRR
Description: 8-OH DPAT (dipropylaminotetralin) from the 5-HT1A serotonin receptor by the procedure of Hall et al., J. Neurochem.

D-2 dopamine receptor = target: T2, D-2 dopamine receptor (Rattus norvegicus, UniProt P61169); assay: [^3 H] Spiroperidol binding inhibition (D-2 dopamine receptor, homogenized limbic brain tissue)
T2 construct: from tissue; host or cells: homogenized limbic brain tissue
T2 sequence (P61169 whole entry): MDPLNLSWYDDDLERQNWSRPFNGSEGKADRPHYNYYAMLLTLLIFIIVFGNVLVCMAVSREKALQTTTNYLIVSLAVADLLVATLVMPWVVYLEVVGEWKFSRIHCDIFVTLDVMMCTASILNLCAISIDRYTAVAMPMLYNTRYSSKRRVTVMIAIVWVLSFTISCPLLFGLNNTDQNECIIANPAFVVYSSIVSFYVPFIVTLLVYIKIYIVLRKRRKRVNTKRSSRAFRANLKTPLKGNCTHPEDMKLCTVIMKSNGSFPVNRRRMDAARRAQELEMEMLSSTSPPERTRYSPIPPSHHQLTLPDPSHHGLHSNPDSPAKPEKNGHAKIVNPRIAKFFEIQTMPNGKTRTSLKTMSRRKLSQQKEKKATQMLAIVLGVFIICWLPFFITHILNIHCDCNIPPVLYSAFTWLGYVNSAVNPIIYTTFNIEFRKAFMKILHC
Description: The results of this testing with compounds representative of the invention whose production is exemplified, infra, are as follows: […]

[3] = tested on: apomorphine-induced stereotyped behavior and climbing; assay: Antagonism of apomorphine-induced stereotyped behavior and climbing; type: in vivo, mouse (CF-1, Charles River); conditions: for Apomorphine Antagonism, Stereotypy ED50 / Apomorphine Antagonism, Climbing ED50: p.o.; for Apomorphine Antagonism, Stereotypy ED50 / ED50 / Apomorphine Antagonism, Climbing ED50: apomorphine 1 mg/kg s.c.; for ED50: Mus musculus, po; for Ratio of ED50 for stereotyped behavior to ED50 for climbing: standard antipsychotic drugs, high ratio = low extrapyramidal liability
Experimental: Readings are repeated every five minutes during a thirty minute test session. […] The ratio of the ED50 for stereotyped behavior of the ED50 for climbing is calculated.

[4] = tested on: conditioned avoidance responding; assay: Conditioned avoidance, Discrete Trial (lever press); type: in vivo, rat (male CD, Charles River); conditions: for Conditioned Avoidance, Discrete Trial AB50: p.o.; for ED50: Rattus norvegicus, po, read-out: Conditioned Avoidance, Discrete Trial AB50
Description: as §1

[5] = read-out: Apomorphine Antagonism, Climbing ED50
[6] = read-out: Apomorphine Antagonism, Stereotypy ED50

Structure (SMILES)	Ki [2]	inhibition at 1 µM (D-2 dopamine receptor)	Ki (D-2 dopamine receptor)	inhibition at 1 µM [2]	inhibition in vivo at 40 mg/kg [1]	Apomorphine Antagonism, Stereotypy ED50 [3]	Conditioned Avoidance, Discrete Trial AB50 [4]	ED50 [3, 5]	Apomorphine Antagonism, Climbing ED50 [3]	ED50 [4]	ED50 [3, 6]	Affinity for the 5-HT1A serotonin receptor (in words) [2]	Ratio of ED50 for stereotyped behavior to ED50 for climbing [3]
O=C1C2CCC(C2)C(=O)N1CCCCN1CCN(c2ncccn2)CC1 [Example 2, 3-[4-[4-(2-Pyrimidinyl)-1-piperazinyl]butyl]-3-azabicyclo[3.2.1]octane-2,4-dione]	106 nM	–	2610 nM	–	> 20%	inactive	weak	–	–	–	–	–	–
O=C1C2CCC(S2)C(=O)N1CCCCN1CCN(c2ncccn2)CC1 [Example 4, 3-[4-[4-(2-Pyrimidinyl)-1-piperazinyl]butyl]-8-thia-3-azabicyclo[3.2.1]octane-2,4-dione]	46 nM	12%	–	–	> 20%	inactive	inactive	53.3 mg/kg	–	–	–	–	–
O=C1C2CCCC(C(=O)N1CCCCN1CCN(c3ncccn3)CC1)[S+]2[O-] (stereo not drawn) [Example 6, 3-[4-[4-(2-Pyrimidinyl)-1-piperazinyl]butyl]-9-thia-3-azabicyclo[3.3.1]nonane-2,4-dione-9-oxide]	90 nM	14%	–	–	> 20%	inactive	inactive	–	inactive	–	–	–	–
O=C1C2CCC(C2)C(=O)N1CCCCN1CCN(c2cncc(Cl)n2)CC1 [Example 8, 3-[4-[4-(6-Chloro-2-pyrazinyl)-1-piperazinyl]butyl]-3-azabicyclo[3.2.1]octane-2,4-dione]	–	12%	–	68%	~80%	inactive	–	15.7 mg/kg	–	33.6 mg/kg	–	–	–
O=C1C2CCC(C2)C(=O)N1CCCCN1CCN(c2ccc3ccccc3n2)CC1 [Example 9, 3-[4-[4-(2-Quinolyl)-1-piperazinyl]butyl]-3-azabicyclo[3.2.1]octane-2,4-dione]	60 nM	31%	–	–	> 20%	inactive	–	40.9 mg/kg	–	98.2 mg/kg	–	–	–
O=C1C2CCC(O2)C(=O)N1CCCCN1CCN(c2cncc(Cl)n2)CC1 [Example 12, 3-[4-[4-(6-Chloro-2-pyrazinyl)-1-piperazinyl]butyl]-8-oxa-3-azabicyclo[3.2.1]octane-2,4-dione]	–	7%	–	54%	> 20%	inactive	weak	51.6 mg/kg	–	–	–	–	–
O=C1C2CCCC(O2)C(=O)N1CCCCN1CCN(c2ncccn2)CC1 [Example 13, 3-[4-[4-(2-Pyrimidinyl)-1-piperazinyl]butyl]-9-oxa-3-azabicyclo[3.3.1]nonane-2,4-dione]	122 nM	17%	–	–	~80%	inactive	–	0.24 mg/kg	–	86.2 mg/kg	–	–	–
O=C1C2CCCC(O2)C(=O)N1CCCCN1CCN(c2cncc(Cl)n2)CC1 [Example 15, 3-[4-[4-(6-Chloro-2-pyrazinyl)-1-piperazinyl]butyl]-9-oxa-3-azabicyclo[3.3.1]nonane-2,4-dione]	–	21%	–	63%	~80%	inactive	weak	–	–	–	–	–	–
O=C1C2CCCC(C2)C(=O)N1CCCCN1CCN(c2cnccn2)CC1 [Example 16, 3-[4-[4-(2-Pyrazinyl)-1-piperazinyl]butyl]-3-azabicyclo[3.3.1]nonane-2,4-dione]	129 nM	12%	–	–	~80%	–	inactive	9.17 mg/kg	–	–	54.1 mg/kg	–	–
O=C1CC2(CCCC2)CC(=O)N1CCCCN1CCN(c2ncccn2)CC1 [buspirone, reference compound]	–	–	–	–	–	–	–	–	–	–	–	potent affinity	–
CN(C)CCCN1c2ccccc2Sc2ccc(Cl)cc21 [chlorpromazine, reference compound]	–	–	–	–	–	–	–	–	–	–	–	–	1.51
O=C(CCCN1CCC(O)(c2ccc(Cl)cc2)CC1)c1ccc(F)cc1 [haloperidol, reference compound]	–	–	–	–	–	–	–	–	–	–	–	–	1.00

The next lines start with results.

Ki [2]	inhibition at 1 µM (D-2 dopamine receptor)	Ki (D-2 dopamine receptor)	inhibition at 1 µM [2]	Structure (SMILES)	inhibition in vivo at 40 mg/kg [1]	Apomorphine Antagonism, Stereotypy ED50 [3]	Conditioned Avoidance, Discrete Trial AB50 [4]	ED50 [3, 5]	Apomorphine Antagonism, Climbing ED50 [3]	ED50 [4]	ED50 [3, 6]	Affinity for the 5-HT1A serotonin receptor (in words) [2]	Ratio of ED50 for stereotyped behavior to ED50 for climbing [3]
10 nM	38%	–	–	O=C1C2CCCC(C2)C(=O)N1CCCCN1CCN(c2ncccn2)CC1 [Example 1, 3-[4-[4-(2-Pyrimidinyl)-1-piperazinyl]butyl]-3-azabicyclo[3.3.1]nonane-2,4-dione]	~80%	inactive	inactive	–	–	–	–	–	–
31 nM	44%	–	–	O=C1C2CCC(O2)C(=O)N1CCCCN1CCN(c2ncccn2)CC1 [Example 3, 3-[4-[4-(2-Pyrimidinyl)-1-piperazinyl]butyl]-8-oxa-3-azabicyclo[3.2.1]octane-2,4-dione]	~80%	inactive	weak	–	–	–	–	–	–
16 nM	27%	–	–	O=C1C2CCCC(S2)C(=O)N1CCCCN1CCN(c2ncccn2)CC1 [Example 5, 3-[4-[4-(2-Pyrimidinyl)-1-piperazinyl]butyl]-9-thia-3-azabicyclo[3.3.1]nonane-2,4-dione]	> 20%	inactive	–	–	inactive	47.3 mg/kg	–	–	–
31 nM	21%	–	–	O=C1C2CCCC(C2)C(=O)N1CCCCN1CCN(c2cncc(Cl)n2)CC1 [Example 7, 2-[4-[4-(6-Chloro-2-pyrazinyl)-1-piperazinyl]butyl]-3-azabicyclo[3.3.1]nonane-2,4-dione]	~80%	inactive	–	–	–	34.1 mg/kg	–	–	–
3.61 nM	–	80 nM	–	O=C1C2CCC(C2)C(=O)N1CCCCN1CCN(c2cccc(C(F)(F)F)c2)CC1 [Example 10, 3-[4-[4-[3-(Trifluoromethyl)phenyl]-1-piperazinyl]butyl]-3-azabicyclo[3.2.1]octane-2,4-dione]	~80%	–	–	1.05 mg/kg	–	7.03 mg/kg	4.98 mg/kg	–	–
3.89 nM	–	130 nM	–	O=C1C2CCC(C2)C(=O)N1CCCCN1CCN(c2cccc(Cl)c2)CC1 [Example 11, 3-[4-[4-(3-Chlorophenyl)-1-piperazinyl]butyl]-3-azabicyclo[3.2.1]octane-2,4-dione]	~80%	–	–	0.79 mg/kg	–	27.1 mg/kg	2.2 mg/kg	–	–
35.2 nM	34%	–	–	O=C1C2CCCC(S2)C(=O)N1CCCCN1CCN(c2cncc(Cl)n2)CC1 [Example 14, 3-[4-[4-(6-Chloro-2-pyrazinyl)-1-piperazinyl]butyl]-9-thia-3-azabicyclo[3.3.1]nonane-2,4-dione]	> 20%	inactive	–	–	–	35.6 mg/kg	–	–	–
5 nM	0%	–	–	COc1ccccc1N1CCN(CCCCN2C(=O)C3CCC(C3)C2=O)CC1 [Example 17, 3-[4-[4-(2-Methoxyphenyl)-1-piperazinyl]butyl]-3-azabicyclo[3.2.1]octane-2,4-dione]	~80%	–	–	0.83 mg/kg	–	29.4 mg/kg	5.83 mg/kg	–	–
